Paper PMC3969763 (Molecular biology reports, 2014)

Biological target: T1, β2-chimaerin (Homo sapiens, UniProt P52757)
T1 sequence (P52757 1-468): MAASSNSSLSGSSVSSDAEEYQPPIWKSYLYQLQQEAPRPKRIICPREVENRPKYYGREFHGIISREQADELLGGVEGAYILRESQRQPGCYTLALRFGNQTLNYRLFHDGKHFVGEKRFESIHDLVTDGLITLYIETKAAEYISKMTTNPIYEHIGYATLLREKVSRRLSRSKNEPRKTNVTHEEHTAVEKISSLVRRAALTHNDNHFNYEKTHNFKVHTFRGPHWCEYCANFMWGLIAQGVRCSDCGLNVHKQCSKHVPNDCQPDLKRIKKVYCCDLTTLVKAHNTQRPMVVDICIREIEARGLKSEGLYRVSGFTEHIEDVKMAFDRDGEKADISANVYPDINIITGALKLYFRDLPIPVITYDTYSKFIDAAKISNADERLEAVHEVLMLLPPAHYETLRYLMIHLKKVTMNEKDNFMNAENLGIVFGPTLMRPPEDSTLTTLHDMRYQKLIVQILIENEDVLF
Format: cell-based

CCCCCCCCCCCCCC(=O)O[C@@H]1[C@@H](C)[C@@]2(O)[C@@H](C=C(CO)C[C@]3(O)C(=O)C(C)=C[C@@H]23)[C@@H]2C(C)(C)[C@]12OC(C)=O [Phorbol 12-myristate 13-acetate]
EC50: 1202 ± 1 nM
